The values below come from ChEMBL document CHEMBL5608208, “Design, synthesis of griseofamine A derivatives and development of potent antibacterial agents against MRSA” (Eur J Med Chem, 2024).

The test system of assay [1] is Staphylococcus aureus. The experiment in a line: Antibacterial activity against Staphylococcus aureus ATCC 29213 incubated for 18 hrs by serial two-fold dilution method. It counts as functional.
In assay [2] the test system is Staphylococcus epidermidis. The experiment in a line: Antibacterial activity against Staphylococcus epidermidis ATCC 12228 incubated for 18 hrs by serial two-fold dilution method. It counts as functional.
Assay [3] has as its system Staphylococcus aureus. The experiment in a line: Antibacterial activity against methicillin resistant Staphylococcus aureus ATCC 33592 incubated for 18 hrs by serial two-fold dilution method. It is filed as functional.
Assay [4] concerns Staphylococcus aureus. In words: Antibacterial activity against methicillin resistant Staphylococcus aureus ATCC 43300 incubated for 18 hrs by serial two-fold dilution method. It is filed as functional.
Assay [5] relates to Staphylococcus aureus. In words: Potency index, ratio of griseofamine A MIC to test compound MIC for antibacterial activity against methicillin resistant Staphylococcus aureus ATCC 33592. It counts as functional.
For assay [6], the system named is Staphylococcus aureus. The experiment in a line: Potency index, ratio of vancomycin MIC to test compound MIC for antibacterial activity against methicillin resistant Staphylococcus aureus ATCC 33592. It is filed as functional.
In assay [7] the test system is Staphylococcus aureus. The experiment in a line: Potency index, ratio of griseofamine A MIC to test compound MIC for antibacterial activity against methicillin resistant Staphylococcus aureus ATCC 43300. It is filed as functional.
Assay [8] has as its system Staphylococcus aureus. In words: Potency index, ratio of vancomycin MIC to test compound MIC for antibacterial activity against methicillin resistant Staphylococcus aureus ATCC 43300. It counts as functional.
Assay [9] concerns Staphylococcus epidermidis. The experiment in a line: Bactericidal activity against Staphylococcus epidermidis ATCC 12228 incubated for 18 to 24 hrs. It is filed as functional. Particulars: time 18-24 hrs.
Assay [10] deals with Staphylococcus aureus. In words: Bactericidal activity against Staphylococcus aureus ATCC 29213 incubated for 18 to 24 hrs. It is filed as functional. Particulars: time 18-24 hrs.
Assay [11] relates to Staphylococcus aureus. In words: Bactericidal activity against methicillin resistant Staphylococcus aureus ATCC 33592 incubated for 18 to 24 hrs. It counts as functional. The settings on record: time 18-24 hrs.
Assay [12] deals with Staphylococcus aureus. The experiment in a line: Bactericidal activity against methicillin resistant Staphylococcus aureus ATCC 43300 incubated for 18 to 24 hrs. It is filed as functional. The settings on record: time 18-24 hrs.
The test system of assay [13] is Staphylococcus aureus. In words: Potency index, ratio of griseofamine A MIC to test compound MIC for antibacterial activity against Staphylococcus aureus ATCC 29213. It is filed as functional.
The subject of assay [14] is Staphylococcus aureus. The experiment in a line: Potency index, ratio of vancomycin MIC to test compound MIC for antibacterial activity against Staphylococcus aureus ATCC 29213. It counts as functional.
Assay [15] concerns Staphylococcus aureus. The experiment in a line: Bactericidal activity against methicillin resistant Staphylococcus aureus ATCC 33592 at 2.5 times MIC by time-kill kinetics assay. It is filed as functional, organism-based.
Assay [16] has as its system Staphylococcus aureus. The experiment in a line: Bactericidal activity against methicillin resistant Staphylococcus aureus ATCC 33592 at 2.5 times MIC measured after 12 hrs by time-kill kinetics assay. It is filed as functional, organism-based.
Assay [17] relates to Staphylococcus epidermidis. The experiment in a line: Drug resistance development in Staphylococcus epidermidis ATCC 12228 assessed as increase in MIC value measured after 8 passages by broth microdilution method. It is filed as functional. (In broth dilution the organism is exposed to a series of concentrations in liquid medium.)
The subject of assay [18] is Staphylococcus aureus. In words: Antibacterial activity against methicillin resistant Staphylococcus aureus ATCC 43300 infected in ICR mouse systemic infection model at 2.5 mg/kg, ip pretreated with bacteria for 30 mins followed by compound addition and measured for 7 days. It is filed as functional. The settings on record: time 7 day.

≈ marks a conversion by molar mass, not a printed value. Calls of active or inactive are those of the source. The calls are words filed in the database; no cut-off is given here.

Take `C/C(O)=C1\C(=O)[C@@H]2Cc3c([nH]c4ccccc34)[C@@H](c3ccc(-c4ccc(OC(F)(F)F)cc4)cc3)N2C1=O`: the MIC in the assay on Staphylococcus aureus [1] was found to be 0.063 µg/mL (≈ 0.122 µM); in assay [2] it was 0.125 µg/mL (≈ 0.241 µM); against Staphylococcus aureus [3], 0.063 µg/mL (≈ 0.122 µM); with Staphylococcus aureus [4], 0.063 µg/mL (≈ 0.122 µM). For the same compound, the Ratio is 128 with Staphylococcus aureus [5], 8 with Staphylococcus aureus [6], 128 in the assay on Staphylococcus aureus [7] and 8 in the assay on Staphylococcus aureus [8]. The MBC in assay [9] came to 1 µg/mL (≈ 1.93 µM); in the assay on Staphylococcus aureus [10], 4 µg/mL (≈ 7.71 µM); against Staphylococcus aureus [11], 4 µg/mL (≈ 7.71 µM); in the assay on Staphylococcus aureus [12] it was 4 µg/mL (≈ 7.71 µM).

Turning to `C/C(O)=C1\C(=O)[C@@H]2Cc3c([nH]c4ccccc34)[C@@H](c3ccc(-c4ccc(C)cc4)cc3)N2C1=O`, the MIC was determined as 0.125 µg/mL (≈ 0.279 µM) in the assay with Staphylococcus aureus [1], 0.25 µg/mL (≈ 0.557 µM) in assay [2], 0.25 µg/mL (≈ 0.557 µM) against Staphylococcus aureus [3] and 0.125 µg/mL (≈ 0.279 µM) in the assay with Staphylococcus aureus [4].

As to `C/C(O)=C1\C(=O)[C@@H]2Cc3c([nH]c4ccccc34)[C@@H](c3ccc(-c4ccccc4F)cc3)N2C1=O`, the MIC against Staphylococcus aureus [1] stood at 0.125 µg/mL (≈ 0.276 µM); in [2] it was 0.25 µg/mL (≈ 0.553 µM); in the assay on Staphylococcus aureus [3] it was 0.25 µg/mL (≈ 0.553 µM); with Staphylococcus aureus [4], 0.25 µg/mL (≈ 0.553 µM).

Consider `C/C(O)=C1\C(=O)[C@@H]2Cc3c([nH]c4ccccc34)[C@@H](c3ccc(-c4ccc(F)cc4F)cc3)N2C1=O`, for which the MIC in the assay on Staphylococcus aureus [1] stood at 0.125 µg/mL (≈ 0.266 µM); in assay [2], 0.25 µg/mL (≈ 0.531 µM); with Staphylococcus aureus [3], 0.25 µg/mL (≈ 0.531 µM); against Staphylococcus aureus [4], 0.125 µg/mL (≈ 0.266 µM).

For `C/C(O)=C1\C(=O)[C@@H]2Cc3c([nH]c4ccccc34)[C@@H](c3ccc(-c4ccc(F)cc4)o3)N2C1=O`, the MIC (in the assay on Staphylococcus aureus [1]; in assay [2]; against Staphylococcus aureus [3]; against Staphylococcus aureus [4]) was 0.5 µg/mL (≈ 1.13 µM) in each case.

As for `CC(C)=CCc1cccc2[nH]c3c(c12)C[C@H]1C(=O)/C(=C(\C)O)C(=O)N1[C@@H]3C`, the MIC (in the assay with Staphylococcus aureus [1]; in [2]; against Staphylococcus aureus [3]; with Staphylococcus aureus [4]) was 8 µg/mL (≈ 22 µM) each time.

Take `O=C1/C(=C(/O)c2cccs2)C(=O)N2[C@H](c3ccc(-c4cc(F)cc(F)c4)cc3)c3[nH]c4ccccc4c3C[C@@H]12`: the MIC with Staphylococcus aureus [1] was 0.25 µg/mL (≈ 0.464 µM); in assay [2], 0.25 µg/mL (≈ 0.464 µM); with Staphylococcus aureus [3] it was 0.25 µg/mL (≈ 0.464 µM); in the assay on Staphylococcus aureus [4], 0.125 µg/mL (≈ 0.232 µM).

`C/C(O)=C1\C(=O)[C@@H]2Cc3c([nH]c4ccccc34)[C@@H](c3ccc(-c4ccccc4)cc3)N2C1=O` gave a minimal inhibitory concentration (MIC) in the assay on Staphylococcus aureus [1] of 0.125 µg/mL (≈ 0.288 µM). Besides, the Ratio in the assay with Staphylococcus aureus [13] is given as 64; with Staphylococcus aureus [14], 4.

As for `CN[C@H](CC(C)C)C(=O)N[C@H]1C(=O)N[C@@H](CC(N)=O)C(=O)N[C@H]2C(=O)N[C@H]3C(=O)N[C@H](C(=O)N[C@H](C(=O)O)c4cc(O)cc(O)c4-c4cc3ccc4O)[C@H](O)c3ccc(c(Cl)c3)Oc3cc2cc(c3O[C@@H]2O[C@H](CO)[C@@H](O)[C@H](O)[C@H]2O[C@H]2C[C@](C)(N)[C@H](O)[C@H](C)O2)Oc2ccc(cc2Cl)[C@H]1O` [VANCOMYCIN], the figures for the minimum inhibitory concentration (MIC) in assay [2] and in assay [17] were 0.5 µg/mL (≈ 0.345 µM) and 0.5 µg/mL, respectively. The MBC in assay [9] is 0.25 µg/mL (≈ 0.173 µM); in the assay with Staphylococcus aureus [10] it was 1 µg/mL (≈ 0.69 µM); in the assay with Staphylococcus aureus [11], 1 µg/mL (≈ 0.69 µM); in the assay on Staphylococcus aureus [12] it was 1 µg/mL (≈ 0.69 µM). In addition, the result with Staphylococcus aureus [15] was Active. Also, the result with Staphylococcus aureus [16] was inactive. Also, the Activity in the assay on Staphylococcus aureus [18] was 62.5%.

With `CCc1ccc(-c2ccc([C@@H]3c4[nH]c5ccccc5c4C[C@H]4C(=O)/C(=C(\C)O)C(=O)N34)cc2)cc1`, the MIC against Staphylococcus aureus [1] worked out at 0.5 µg/mL (≈ 1.08 µM); in assay [2] it was 0.25 µg/mL (≈ 0.54 µM); against Staphylococcus aureus [3] it was 0.25 µg/mL (≈ 0.54 µM); with Staphylococcus aureus [4], 0.25 µg/mL (≈ 0.54 µM).

Turning to `CCn1c2c(c3ccccc31)C[C@H]1C(=O)/C(=C(\C)O)C(=O)N1[C@@H]2c1ccc(-c2ccc(F)cc2)cc1`, the minimum inhibitory concentration (MIC) against Staphylococcus aureus [1] is 0.25 µg/mL (≈ 0.52 µM); in assay [2] it was 0.25 µg/mL (≈ 0.52 µM); against Staphylococcus aureus [3] it was 0.25 µg/mL (≈ 0.52 µM); in the assay with Staphylococcus aureus [4], 0.125 µg/mL (≈ 0.26 µM).

As a reminder, the MIC is the lowest concentration that inhibits growth of the organism. As a reminder, the MBC is the lowest tested concentration that kills the bacteria rather than only halting them. Read a high MBC as weaker bactericidal potency.
